In publication PMC9820430, “New Affordable Methods for Large-Scale Isolation of Major Olive Secoiridoids and Systematic Comparative Study of Their Antiproliferative/Cytotoxic Effect on Multiple Cancer Cell Lines of Different Cancer Origins” (International Journal of Molecular Sciences, 2022):
Like-named read-outs stand apart in the source and are kept apart here.

What was measured:
Experiment in all cases: ATP-based luminescence cell viability assay (ViaLight), 72 h
Set-up in all cases: species or system human
A2058 = conditions: for Selectivity index SI (HaCaT): EC50 HaCaT / EC50 A2058; for Selectivity index SI (NHDF): EC50 NHDF / EC50 A2058; for EC50: A2058, 72 h treatment, read-out: EC50 Values of Olive Oil Polyphenols
Experimental: (§1) The antiproliferative/cytotoxic effects of the selected OOPs on each cell line were assessed by measuring the cellular ATP levels after 72 h treatments using an ATP-based luminescence assay. This assay, initially developed as a tumor chemosensitivity assay, has shown considerable promise as a general in vitro toxicity assay due to its high sensitivity that allows the detection of a small number of cells. Consequently, it can be applied to both cancer cell lines and primary tissue cells. […] The EC50 values were calculated by nonlinear regression (curve fit) using a sigmoidal dose–response equation (Figure 2A and Figure S2).
(§2) The OOPs tested in this study were first dissolved in an appropriate DMSO volume such as to prepare a final stock solution of 50 mM, which was further used to prepare various compound concentrations in DMSO-based solutions. The final DMSO concentration in the cell culture was maintained constant in all treated groups of any given experiment and never exceeded the value of 0.2% (v/v). For the treatment experiments, cells were plated in 96-well culture plates, in 100 μL of complete medium at a seeding density of 5000–10,000 cells/well—depending on cells’ size and doubling time—and were allowed to adhere overnight (~16 h). The next day, 150 μL of complete medium was added to each well and the cells were treated with various concentrations of OOPs. Each concentration was tested in triplicate and was repeated 2–3 times. To prepare the final concentration solutions, 0.5 μL of a 500× stock of each tested compound in DMSO was added directly into each well in a final volume of 250 μL culture medium and was gently mixed by pipetting. Control wells were prepared under the same experimental conditions by adding only DMSO at a final concentration of 0.2% (v/v). Compounds were not renewed during the entire period of cell exposure. All cells were cultured at 37 °C in a 5% (v/v) CO2 for 24, 48 or 72 h.
(§3) Briefly, after the treatment with OOPs, the adapted medium was removed from the dish wells and the cells were washed twice with medium without FBS. Then, the C-lysis (LT27-076) was diluted in PBS (1:2) and a volume of 50 μL was added to each well. Cells were incubated with C-lysis for at least 10 min. Finally, an equal volume of lysed cells from each well and ATP monitoring reagent (AMR; LT27-212) was transferred to the wells of a white-walled illuminometer plate (Greiner bio-one; 655074). Cell viability was quantified by measuring luminescence using a multi-mode microplate reader Safire^2 Tecan (software Magellan V6.00 STD.2PC WIN.20000/XP).

AGS = conditions: 72 h treatment, read-out: EC50 Values of Olive Oil Polyphenols
Experimental: as §1, §2, §3

Caco-2 = conditions: 72 h treatment, read-out: EC50 Values of Olive Oil Polyphenols
Experimental: as §1, §2, §3

H1299 = conditions: for Selectivity index SI (MRC-5): EC50 MRC-5 / EC50 H1299; for EC50: H1299, 72 h treatment, read-out: EC50 Values of Olive Oil Polyphenols
Experimental: as §1, §2, §3

H1437 = conditions: for Selectivity index SI (MRC-5): EC50 MRC-5 / EC50 H1437; for EC50: H1437, 72 h treatment, read-out: EC50 Values of Olive Oil Polyphenols
Experimental: as §1, §2, §3

HT-29 = conditions: 72 h treatment, read-out: EC50 Values of Olive Oil Polyphenols
Experimental: as §1, §2, §3

HaCaT = HaCaT (immortal keratinocytes), 72 h treatment, read-out: EC50 Values of Olive Oil Polyphenols
Experimental: as §1, §2, §3

Hela = conditions: 72 h treatment, read-out: EC50 Values of Olive Oil Polyphenols
Experimental: as §1, §2, §3

HepG-2 = conditions: 72 h treatment, read-out: EC50 Values of Olive Oil Polyphenols
Experimental: as §1, §2, §3

Huh-7 = conditions: 72 h treatment, read-out: EC50 Values of Olive Oil Polyphenols
Experimental: as §1, §2, §3

MCF 10A = MCF 10A (non-tumorigenic epithelial), 72 h treatment, read-out: EC50 Values of Olive Oil Polyphenols
Experimental: as §1, §2, §3

ME-180 = conditions: 72 h treatment, read-out: EC50 Values of Olive Oil Polyphenols
Experimental: as §1, §2, §3

MRC-5 = MRC-5 (non cancer, lung), 72 h treatment, read-out: EC50 Values of Olive Oil Polyphenols
Experimental: as §1, §2, §3

SK-BR-3 = conditions: for Selectivity index SI (MCF 10A): EC50 MCF 10A / EC50 SK-BR-3; for EC50: SK-BR-3, 72 h treatment, read-out: EC50 Values of Olive Oil Polyphenols
Experimental: as §1, §2, §3

SK-MEL-28 = conditions: for Selectivity index SI (HaCaT): EC50 HaCaT / EC50 SK-MEL-28; for Selectivity index SI (NHDF): EC50 NHDF / EC50 SK-MEL-28; for EC50: SK-MEL-28, 72 h treatment, read-out: EC50 Values of Olive Oil Polyphenols
Experimental: as §1, §2, §3

## COC(=O)C1=COC(C)[C@@H](C=O)[C@@H]1CC(=O)OCCc1ccc(O)c(O)c1 (mixture of isomers) [3a,b, oleuropein aglycone]
A2058
  Selectivity index SI (HaCaT): 1.0
  Selectivity index SI (NHDF): 1.1
A2058; Homo sapiens, A2058, 72 h
  EC50: 37.2 ± 0.8 µM
AGS; Homo sapiens, 72 h
  EC50: 35.9 ± 1.4 µM
Caco-2; Homo sapiens, Caco-2, 72 h
  EC50: 24.5 ± 0.9 µM
H1299
  Selectivity index SI (MRC-5): 0.4
H1299; Homo sapiens, NCI-H1299
  EC50: 24.1 ± 0.9 µM
H1437
  Selectivity index SI (MRC-5): 0.7
H1437; Homo sapiens, NCI-H1437, 72 h
  EC50: 11.9 ± 0.6 µM
HT-29; Homo sapiens, HT-29, 72 h
  EC50: 50.1 ± 1.5 µM
HaCaT; Homo sapiens, HaCaT, 72 h
  EC50: 36.6 µM
Hela; Homo sapiens, HeLa, 72 h
  EC50: 27.6 ± 0.3 µM
HepG-2; Homo sapiens, HepG2, 72 h
  EC50: 17.7 ± 0.5 µM
Huh-7; Homo sapiens, Huh-7, 72 h
  EC50: 13 ± 0.1 µM
MCF 10A; Homo sapiens
  EC50: 9.5 ± 0.4 µM
ME-180; Homo sapiens, ME-180, 72 h
  EC50: 25.5 ± 0.5 µM
MRC-5; Homo sapiens, MRC5
  EC50: 8.6 ± 0.4 µM
SK-BR-3
  Selectivity index SI (MCF 10A): 0.5
SK-BR-3; Homo sapiens, SK-BR-3, 72 h
  EC50: 17.7 ± 1.4 µM
SK-MEL-28
  Selectivity index SI (HaCaT): 2.4
  Selectivity index SI (NHDF): 2.8
  EC50: 15.1 ± 0.9 µM
SK-MEL-28; Homo sapiens, SK-MEL-28, 72 h
  EC50: 22.2 µM

## C/C=C(/C=O)[C@@H](CC=O)CC(=O)OCCc1ccc(O)cc1 [compound 1, oleocanthal]
A2058; Homo sapiens, A2058, 72 h
  EC50: 18.4 ± 0.4 µM
AGS; Homo sapiens, 72 h
  EC50: 18.3 ± 1 µM
Caco-2
  EC50: 34.3 ± 4.1 µM
Caco-2; Homo sapiens, Caco-2, 72 h
  EC50: 33.4 µM
H1437; Homo sapiens, NCI-H1437, 72 h
  EC50: 26.5 ± 1.1 µM
HT-29; Homo sapiens, HT-29, 72 h
  EC50: 26.3 ± 2 µM
HaCaT; Homo sapiens, HaCaT, 72 h
  EC50: 19.3 ± 0.3 µM
Hela; Homo sapiens, HeLa, 72 h
  EC50: 44.6 ± 0.4 µM
HepG-2; Homo sapiens, HepG2, 72 h
  EC50: 40 ± 5.3 µM
Huh-7; Homo sapiens, Huh-7, 72 h
  EC50: 20.2 ± 1.5 µM
MCF 10A; Homo sapiens
  EC50: 7 ± 0.3 µM
ME-180; Homo sapiens, ME-180, 72 h
  EC50: 9.1 ± 0.3 µM
MRC-5; Homo sapiens, MRC5
  EC50: 2 ± 0.1 µM
SK-BR-3; Homo sapiens, SK-BR-3, 72 h
  EC50: 13 ± 0.6 µM
SK-MEL-28; Homo sapiens, SK-MEL-28, 72 h
  EC50: 10.4 ± 1.1 µM

## C/C=C(/C=O)[C@@H](CC=O)CC(=O)OCCc1ccc(O)c(O)c1 [compound 2, oleacein]
A2058
  Selectivity index SI (HaCaT): 0.9
  Selectivity index SI (NHDF): 0.9
A2058; Homo sapiens, A2058, 72 h
  EC50: 55.7 ± 3.4 µM
AGS; Homo sapiens, 72 h
  EC50: 46.2 ± 2.3 µM
Caco-2; Homo sapiens, Caco-2, 72 h
  EC50: > 100 µM
H1299
  Selectivity index SI (MRC-5): 0.1
H1299; Homo sapiens, NCI-H1299
  EC50: 61.7 ± 1.3 µM
H1437
  Selectivity index SI (MRC-5): 0.1
H1437; Homo sapiens, NCI-H1437, 72 h
  EC50: 74.6 ± 2.1 µM
HT-29; Homo sapiens, HT-29, 72 h
  EC50: > 100 µM
HaCaT
  EC50: 51.8 ± 4.2 µM
HaCaT; Homo sapiens, HaCaT, 72 h
  EC50: > 50 µM
Hela; Homo sapiens, HeLa, 72 h
  EC50: 46.3 ± 4.9 µM
HepG-2; Homo sapiens, HepG2, 72 h
  EC50: 82.8 ± 0.7 µM
Huh-7; Homo sapiens, Huh-7, 72 h
  EC50: 49.6 ± 0.5 µM
MCF 10A; Homo sapiens
  EC50: 24.7 ± 2.7 µM
ME-180; Homo sapiens, ME-180, 72 h
  EC50: 25.2 ± 0.2 µM
MRC-5; Homo sapiens, MRC5
  EC50: 7 ± 0.9 µM
SK-BR-3
  Selectivity index SI (MCF 10A): 0.5
SK-BR-3; Homo sapiens, SK-BR-3, 72 h
  EC50: 45.6 ± 2.2 µM
SK-MEL-28
  Selectivity index SI (HaCaT): 1.6
  Selectivity index SI (NHDF): 1.5
SK-MEL-28; Homo sapiens, SK-MEL-28, 72 h
  EC50: 33.4 ± 2.4 µM

## ligstroside aglycone [4a,b]
A2058
  EC50: 63.6 ± 1.6 µM
  Selectivity index SI (HaCaT): 0.9
  Selectivity index SI (NHDF): 0.7
AGS
  EC50: 48.5 ± 2.5 µM
Caco-2
  EC50: 24.4 ± 1.6 µM
H1299
  Selectivity index SI (MRC-5): 0.2
  EC50: 83.3 ± 1.9 µM
H1437
  Selectivity index SI (MRC-5): 1.1
  EC50: 11.6 ± 1.1 µM
HT-29
  EC50: 98.2 ± 8.4 µM
HaCaT
  EC50: 55.6 ± 1 µM
Hela
  EC50: 47.6 ± 1.8 µM
HepG-2
  EC50: 45.8 ± 3.4 µM
Huh-7
  EC50: 36 ± 0.9 µM
MCF 10A
  EC50: 55.8 ± 2.7 µM
ME-180
  EC50: 51.1 ± 2.2 µM
MRC-5
  EC50: 13.2 ± 0.9 µM
SK-BR-3
  Selectivity index SI (MCF 10A): 2.6
  EC50: 21.5 ± 2.5 µM
SK-MEL-28
  Selectivity index SI (HaCaT): 2.5
  Selectivity index SI (NHDF): 2.1
  EC50: 22.2 ± 1.2 µM
